Marks after values point to notes of the source that are not given here. No end group written: not given here.
Experiments:
[1] = system: NK cell; experiment: NK cell cytotoxicity activity test (YAC-1 target cells, MTT) on spleen cells of treated mice; assay type: in vivo, BALB/c mice; settings: IFN-γ and IL-2 groups 3×10^5 IU/kg/day, X ± SD
Experimental: (§1) The above substances were all dissolved in 0.5 ml saline and injected intraperitoneal (i.p.) for 15 continuous days, once per day.
Ten mice per group. The day after the last test substance administration, the mice were sacrificed by cervical dislocation. The spleen was isolated aseptically and manually dispersed in cold D-Hank's solution using an injection needle. The dispersed cell suspension was further sieved through a 100 gauge 150 μm diameter stainless steel sieve. After centrifugation at 200 g for 10 minutes, the supernatant was discarded. The cell pellet was re-suspended in 10 volume of Tris-NH4Cl buffer and then kept standing still for 10 minutes at room temperature. The suspended cells were collected by centrifugation at 150 g for 10 minutes. The cells were washed 2-4 times with cold D-Hank's solution by re-suspending and collecting by centrifugation with condition as described above. The washed cells were then diluted to the desired cell densities by RPMI-1640 culture medium, containing 10% fetal bovine serum.
Mice spleen cells were prepared to 4×10^6/ml as described in section 1.1 above. Target cells YAC-1 were brought to log phase and adjusted to 1×10^5/ml. Using a 96 wells cell culture plate, 100 μl mouse spleen cells and 100 μl culture medium were added to the control well containing only the spleen cells; 100 μl target cells and 100 μl culture medium were added to the control well containing only target cells; 100 μl mouse spleen cells and 100 μl target cells were added to the NK activity assay well. Three parallel sets of the above were prepared per mouse.
Samples were centrifuged at 150 g for 10 minutes to collect the cells. The supernatant was discarded and 50 μl/well MTT of 1 mg/ml was added. The reaction mixture was then shaken for 2 minutes, and incubated at 37° C., 5% CO2 for 4 hours. The supernatant was discarded after centrifugation at 150 g for 10 minutes. 120 μl 40 mM HCl-2-propanol was added and shaken for 3 minutes. An ELISA reader was used to obtain OD570nm of each well referenced at 630 nm.

[2] = immunity organ weight test (thymus gland index, spleen index); assay type: in vivo, BALB/c mice; settings: IFN-γ and IL-2 groups 3×10^5 IU/kg/day, X ± SD
Experimental: as §1
(§2) One day after the last test substance administration (day 16), the liver, spleen, and thymus gland were separated and blotted dry with filter paper and weighed. The phagocytosis index α was calculated as below: α=(^3√K)(W÷WLS) key: W: body weight WLS: weight of liver plus spleen Thymus gland index(%)=(thymus weight/body weight)×100% Spleen index(%)=(spleen weight/body weight)×100%

[3] = system: T lymphocyte; parameters: species or system BALB/c mice; settings: mouse, in vivo, ip
[4] = system: anti-SRBC antibody; experiment: Sheep Red Blood Cell (SRBC) hemolysis test, anti-SRBC antibody formation; assay type: in vivo, BALB/c mice; settings: SRBC on day 12, IFN-γ and IL-2 groups 3×10^5 IU/kg/day, X ± SD
Experimental: Sheep red blood cells (SRBC) were prepared by collecting blood from cervical vein and put into a sterile flask with glass beads. The flask was shaken for 3 minutes and the blood then mixed with Alsever solution (glucose 2.05 g, NaCl 0.4 g, […] 0.8 g, adjust to 100 ml with distilled water) and stored at 4° C. Immediately before use, samples were centrifuged at 130 g, 5 minutes to collect the SRBC. The cells were washed two times by re-suspension and centrifugation in normal saline. Then the cell pellet was collected by centrifugation at 180 g for 10 minutes and re-suspended in saline to make the final working SRBC suspension, 2% (v/v).
Complement was prepared by adding 10 volumes of fresh Cavy serum into one volume centrifuge packed SRBC, and then gently shaking for 30 minutes at 4° C. The SRBC was removed by centrifugation at 200 g for 10 minutes. 10 volumes of normal saline were added to obtain the working complement solution.
The test substances were administered as described in section 1.1, plus intraperitoneal injection 0.2 ml SRBC per mouse on day 12. On the day after the last test substance administration (day 16), blood was collected from the eye canthus and left at room temperature for one hour for serum exudation. After centrifugation at 200 g for 10 minutes, the serum was diluted by 500 times with normal saline.
To 1 ml diluted mouse serum of each mouse, 0.5 ml SRBC suspension was added. Ice cold. Then 1 ml working complement solution was added and incubated at 37° C. water bath for 10 minutes. Reactions were terminated by ice cold. Samples were then centrifuged at 200 g for 10 minutes to obtain the supernatant.
To 1 ml of this supernatant, 3 ml Drabkin solution was added and left at room temperature for 10 minutes. OD540nm was obtained.
Reference OD540nm was obtained by mixing 0.25 ml SRBC suspension with Drabkin solution to 4 ml and placed at room temperature for 10 minutes before OD540nm was taken. Sample serum index=(OD540nm of test sample[…]reference OD540nm)×500 3. The Effect of Peptides on the Phagocytosis Function of Mononuclear Phagocyte and the Weight of Immune Organ^[8,9].

[5] = system: T lymphocyte; experiment: T lymphocyte IL-2 secretion test (HT-2 cell bioassay of ConA supernatant); assay type: in vivo, BALB/c mice; settings: IFN-γ and IL-2 groups 3×10^5 IU/kg/day, X ± SD
Experimental: as §1
Spleen cells of density 1×10^6/ml were placed onto a 96 wells cell culture plate, 100 μl/well, three parallel wells each of the assay sample and control sample per mouse. To the assay wells, 100 μl/well ConA of 100 μg/ml in RPMI-1640 was added, and 100 μl/well plain RPMI-1640 was used for the controls. The cells were incubated for 66 hrs at 37° C., 5% CO2. The cells were then pelleted by centrifugation at 150 g for 10 minutes.
HT-2 cells at log phase were collected by centrifugation at 150 g for 10 minutes, and washed three times with cold Hank's solution by re-suspension and centrifugation. The collected HT-2 cells were re-suspended in RPMI-1640 and incubated at 37° C., 5% CO2 for 30 minutes. The cells were further washed twice with RPMI-1640 by re-suspension and centrifugation, and re-suspended to final concentration of 2×10^5/ml with RPMI-1640.
rIL-2 was diluted to the following concentration with RPMI-1640: 500 IU/ml, 250 IU/ml, 125 IU/ml, 62.5 IU/ml, 31.25 IU/ml, and […].
A 96 well cell culture plate was set up with three parallel wells per combination:
Negative control: 100 μl RPMI-1640+100 μl HT-2 cell suspension
rIL-2 standard: 100 μl rIL-2 solution+100 μl HT-2 cell suspension
Assay well: 100 μl diluted supernatant+100 μl HT-2 cell suspension
The plate was incubated at 37° C., 5% CO2 for 68 hours, then centrifuged at 150 g for 15 minutes and the supernatant removed. 100 μl 0.5 mg/ml MTT in RPMI-1640 without phenolsulfonphthalein was added into each well. After shaking for 3-4 minutes to re-suspend the cells, continue to incubate for another 4 hours. Samples were then centrifuged at 150 g for 15 minutes and the supernatant was removed. To each well, 120 μl 40 mM HCl-2-propanol was added, mixed for 3-4 minutes and OD analyzed at 570 nm, referenced at 630 nm with an ELISA plate reader.
The average OD of the three parallel wells of each dilution was taken and plotted against concentration on a semi-log paper, concentration on the X-axis. The concentration at 50% OD saturation was obtained for both the testing supernatant and rIL-2.

[6] = system: mononuclear phagocyte; experiment: carbon particle clearance test, phagocytotic activity of mononuclear phagocyte; assay type: in vivo, BALB/c mice; parameters: key: α = (cube root of K)×(body weight ÷ liver+spleen weight); settings: peptide 500 μg/kg/day i.p. 15 days; IFN-γ and IL-2 groups 3×10^5 IU/kg/day; X ± SD
Experimental: On the next day after the last test substance administration (day 16), the mice were injected with […] body weight India ink (5 times dilution with normal saline) from the tail vein.
One minute and five minutes after Indian ink injection, 20 μl blood was obtained from the eye can thus with a heparinized tubing. The blood was mixed with 2 ml 0.1% w/v Na2CO3 and then OD680nm obtained. The outline clear index K was calculated by the following formula: K=(lgA1−lgA2)÷(t2−t1) Key: A1: OD680nm at first minute A2: OD680nm at fifth minute t2: 5 minutes […]
as §2

[7] = peptide 0.5 μg/kg/day i.p. 15 days
[8] = peptide 500 μg/kg/day i.p. 15 days
[9] = peptide 5 μg/kg/day i.p. 15 days
[10] = peptide 50 μg/kg/day i.p. 15 days

Row | Substance | NK cell cytotoxic activity (NK cell activity index) [1, 7] [%] | NK cell cytotoxic activity (NK cell activity index) [1, 8] [%] | weight of thymus gland (thymus gland index) [2, 7] | weight of thymus gland (thymus gland index) [2, 9] | weight of thymus gland (thymus gland index) [2, 10] | weight of thymus gland (thymus gland index) [2, 8] | activity of T lymphocyte in secreting IFN [3] | anti-SRBC antibody formation (sample serum index) [4, 7] | anti-SRBC antibody formation (sample serum index) [4, 9] | activity of T lymphocyte in secreting IL-2 [5, 7] | phagocytotic index [6] | anti-SRBC antibody formation (sample serum index) [4, 10] | anti-SRBC antibody formation (sample serum index) [4, 8] | NK cell cytotoxic activity (NK cell activity index) [1, 9] [%] | activity of T lymphocyte in secreting IL-2 [5, 9] [IU] | weight of spleen (spleen index) [2, 7]
1 | Phe Glu Pro Ser Phe (FEPSF; listed as Sus scrofa) [CMS028] | 79 ± 3 | 90 ± 5 | 0.20 ± 0.06 % | 0.28 ± 0.06*^@^ % | 0.18 ± 0.04 % | 0.19 ± 0.02 % | 96 ± 13 IU | 18 ± 5* Unit | 121 ± 48*^@^ Unit |  |  |  |  |  |  | 
2 | Tyr Ser Phe (YSF; listed as Sus scrofa) [CMS022] | 73 ± 11 |  | 0.21 ± 0.06 % | 0.25 ± 0.04*^@^ % | 0.30 ± 0.03*^@^ % | 0.26 ± 0.05*^@^ % | 145 ± 13*^@^ IU |  |  | 109 ± 14*^@^ IU | 7.4 ± 0.6*^@^ | 110 ± 16*^@^ Unit | 68 ± 31* Unit |  |  | 
3 | VGMGQKDSYV [CMS020] |  |  | 0.23 ± 0.05*^@^ % | 0.24 ± 0.07*^@^ % | 0.27 ± 0.03*^@^ % | 0.19 ± 0.04 % |  | 10 ± 3* Unit | 89 ± 24*^@ Unit |  | 6.4 ± 0.6 |  | 155 ± 35*^@^ Unit | 91 ± 6 | 63 ± 11 | 0.68 ± 0.09*^@^ %
